Experimental data taken from patent publication US20240382509A1, “Cannabinoids C- and O-glycosides possessing anti-proliferative and anti-metastatic properties and process for preparation thereof” (Council of Scientific and Industrial Research, priority 2021, published 2024).

How the values were obtained:
MIAPaCa-2 cells [1] = assay: Matrigel invasion assay, MIAPaCa-2; type: cell-based, human; conditions: MIAPaCa-2, from 0.5 μM (0.5-5 μM), 36 h
Protocol: Matrigel invasion assay: MIAPaCa-2 and MDA-MB-231 cells (1×10^6) were seeded onto matrigel coated inserts and treated with compound 2a (0.5, 1.5, 3 & 5 μM) for 36 h in 5% CO2 incubator at 37° C. The upper chamber is filled with serum-free media, and the lower half consists of 10% FBS supplemented media, thus creating a gradient of chemoattractant that facilitates the migration of cells. Upon termination, the inserts were washed with PBS, and the non-migratory cells were removed from the upper chamber by using a cotton plug. Further, the cells were fixed with methanol and stained later with 0.2% crystal violet. After drying, the inserts were observed under an inverted microscope at 20× magnification, and images were taken.
Now this particular derivative was further analysed for its ability to inhibit the molecular signatures of EMT. To this end, MIAPaCa-2 cells were treated with 0.5 μM, 1.5 μM, 3 μM and 5 μM of compound 2a for 36 h and were subjected to immunoblotting to study the expression of Snail-1, Twist-1, Vimentin and E-cadherin. […] To analyse more deeply the ability of this compound to affect migration/metastasis, MIAPaCa-2 cells were seeded onto Matrigel coated inserts and were treated with 0.5 μM, 1.5 μM, 3 μM and 5 μM of compound 2a. […] Formation of invadopodia and filopodia (migratory structures) constitutes the fundamental property of cells undergoing migration. […]

MIAPaCa-2 cells [2] = assay: MTT cell viability assay, MIAPaCa-2; type: cell-based, human; conditions: Homo sapiens, MIA PaCa-2, 48 h, read-out: Cytotoxicity (IC50) MIAPaCa-2, MTT, 48 h
Protocol: Cell viability assay: The cell viability was determined by the standard MTT assay method. Briefly, Panc-1, HCT-116, A549, PC3, MIAPaca-2, HT-29, MDA-MB-231, MCF7 cells, and fR2cells were seeded in 96 well tissue culture plates (Nunc) at a density of 4×10^3 cells per well and treated with varying concentrations of the test compounds in triplicates. DMSO was taken as a vehicle, and its final concentration was maintained at 0.2% in the culture medium. Doxorubicin was employed as a positive control. After 44 h of incubation, MTT dye solution was added into the medium, and cells were incubated for another 4 h at 37° C. in 5% CO2. The amount of colored formazan derivatives formed was measured by taking optical density (OD) using a microplate reader (TECAN, Infinite M200 Pro) at 570 nm, and the percentage of cell viability was calculated. The IC50 values were calculated using GraphPad Prism software (Version 5.0).

[3] = test system: 4T1 mouse mammary carcinoma cells; assay: 4T1 allograft breast cancer model, anti-tumor and anti-metastatic efficacy; type: in vivo
Protocol: In vivo anti-metastatic and anti-tumor efficacy studies. 4T1 mouse mammary carcinoma cells is a highly aggressive cell line that forms tumors when grafted in Balb/c mice. […] All the in vivo experimental protocols were approved by the Institutional Animal Ethics Committee, CPCSEA, of the Indian Institute of Integrative Medicine, Jammu. The animals were maintained at 22° C. with a 12 h light-dark cycle and free access to feed and water inside the institutional animal house. Proper care was taken to maintain them in a healthy condition and to avoid any risk of possible pathogenic contaminations. For subcutaneous implantation of 4T1 cells, the Balb/c mice were distributed into four groups bearing five mice in each group. For tumor induction, 1.5 million 4T1 cells were suspended in serum-free media and injected into the mammary pad of the animal and kept in the animal house for tumor induction. After the tumor reached an adequate size (30-150 mm^3) the mice in the allotted groups were treated with vehicle (normal saline), 15 and 30 mg/kg 2a & 30 mg/kg DIM (positive control) for every alternate day and was continued for two weeks. After the treatment, the mice were sacrificed by cervical dislocation, and the tumor was dissected out from the mammary pad, the tumor volume was measured, and images were taken. Subsequently, to examine the anti-metastatic property of the compound 2a, the chest cavity was dissected to remove the lungs, and after washing with PBS, the metastatic nodules in the lung due to 4T1 migration were checked and subsequently counted.
The anti-proliferative as well as anti-metastatic role of compound 2a was studied in 4T1 allograft breast cancer model. Briefly, 1.5×10^6 4T1 mammary breast cancer cells were injected in mouse mammary pad and kept undisturbed until the formation of tumor. Subsequently, the mice were treated with 15 and 30 mg/kg of compound 2a along with a positive control 30 mg/kg di-indoyl methane (DIM) molecule and normal saline as vehicle. The drugs were administered intraperitonially for each alternate day for 2 weeks. The animals were sacrificed and tumours were harvested from the mammary pad and tumor weight was measured (FIG. 7a & b). Moreover, the lungs were also removed and photographed to study the presence of metastatic patches. […] Furthermore, the tumors were subjected to tissue lysis and immunoblot analysis was performed to study the expression of Snail-1. Twist-1, STAT-3, Vimentin and E-cadherin.

MIAPaCa-2 cells [4] = assay: Cell scatter assay; type: cell-based, human; conditions: MIAPaCa-2, 1, 2, 3 μM, 36 h, compared to vehicle and parent molecule
Protocol: Cell scatter assay MIAPaCa-2 cells were seeded onto a 12 well plate at a seeding density of 500 cells/well and kept for 4-5 days, and there was the formation of scatter colonies since the cell line itself is a metastatic cell line. Accordingly, they were treated with 1 μM, 2 μM & 3 μM of compound 2, 2a, 2b, 3, 3a, 4, 4a & 4b for 36 h, and upon termination, they were washed with PBS and observed under an inverted microscope at 20× magnification (FIG. 3).

HCT-116 cells = assay: Annexin V/PI staining for apoptosis (FACS); type: cell-based; conditions: HCT-116, 750 nM 5FU+3 μM 2a
Protocol: 1×10^6 HCT-116 cells were seeded in 60 mm Petri dish and treated with vehicle, 3 μM 2a, 750 nM 5FU and 750 nM 5FU+3 μM 2a for indicated time points. After treatment termination, the cells were carefully trypsinized and the palette obtained were resuspended in 600 μL of binding buffer (10 mM HEPES [N-2-hydroxyethylpiperazine-N-2-ethanesulfonicacid], 140 mM NaCl, and 2.5 mM CaCl2, pH 7.4). Subsequently, the cells were stained with 6 μL of AnnexinV-FITC and 10 μL of propidium iodide for 20 min at room temperature in the dark. The samples were immediately analyzed by FACS (BD Accuri C6), and the scatter plot was obtained by BD Accuri C6 software.
The DNA damaging effect of compound 2a in combination with subtoxic doses of 5FU was further analyzed by Annexin/PI staining to check the activation of programmed cell death. […] Cumulatively, compound 2a elevated the DNA damaging effect and eventually leads to programmed cell death in combination with subtoxic doses of 5FU (FIG. 9b).

[5] = tumor lysate immunoblot, 30 mg/kg

Question: Which “cellular invasion, Matrigel” value (MIAPaCa-2 cells [1]) does the source give for `CCCCCc1cc(O[C@@H]2OC(CO)[C@@H](O)C(O)C2O)c2c(c1)OC(C)(C)[C@@H]1CCC(C)=C[C@@H]21` (stereo partly drawn) [Compound 2a, Δ^9-tetrahydrocannabinol-1-O-β-D-glucopyranoside] here?
Answer: inhibition of cellular invasion

Question: What about the IC50 (MIAPaCa-2 cells [2]) of the same molecule?
Answer: 1420 nM

Question: And the “metastatic white patches on lungs” value ([3]; Balb/c mice, 4T1, 15 & 30 mg/kg intraperitoneal, alternate day for 2 weeks)?
Answer: white patches were not observed

Question: And the tumor weight ([3]; Balb/c mice, 4T1, 15 and 30 mg/kg intraperitoneal, alternate day for 2 weeks, vs normal saline)?
Answer: drastically reduced

Question: What about the “tumor E-cadherin level” value [3, 5] of the same molecule?
Answer: increased considerably

Question: And the “tumor expression of Twist-1” value [3, 5]?
Answer: curbed

Question: What about the “tumor expression of Snail-1, STAT-3 and Vimentin” value ([3]; tumor lysate immunoblot, 15 and 30 mg/kg) of the same molecule?
Answer: decreases significantly

Question: What about the cell scattering (MIAPaCa-2 cells [4]) of the same molecule?
Answer: typical clumping of scatter cells

Question: And the “apoptosis (Annexin+/PI+)” value (HCT-116 cells)?
Answer: induction of late phase of apoptosis
